Source: patent publication US20060217418A1, “Substituted alkyl amido piperidines” (priority 2001, published 2006)

target: T1, rat MCH1 receptor (Rattus norvegicus, UniProt P97639); test: Radioligand binding assay at cloned rat MCH1 receptor ([3H]Compound A); conditions: cloned rat MCH1, Peakr293 cell membranes, 0.08 nM [3H]Compound A, 25° C., 90 minutes; read-out: Ki(MCH-1)
T1 construct: operatively linked to DNA encoding the rat MCH1 receptor so as to permit expression thereof; expressed in transfected cells; host or cells: Human embryonic kidney Peak rapid 293 (Peakr293) cells, transient calcium phosphate transfection, membranes
T1 sequence (P97639 whole entry): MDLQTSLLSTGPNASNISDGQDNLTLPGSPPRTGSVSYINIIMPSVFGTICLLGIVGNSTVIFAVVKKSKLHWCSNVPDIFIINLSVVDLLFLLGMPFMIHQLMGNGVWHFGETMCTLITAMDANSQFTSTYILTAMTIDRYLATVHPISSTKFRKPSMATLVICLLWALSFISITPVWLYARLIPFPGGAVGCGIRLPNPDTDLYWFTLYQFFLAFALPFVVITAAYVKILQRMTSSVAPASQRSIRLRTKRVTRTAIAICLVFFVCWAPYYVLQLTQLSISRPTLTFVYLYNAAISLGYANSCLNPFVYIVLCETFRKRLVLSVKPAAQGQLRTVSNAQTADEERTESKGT

Compared with `Cc1ccc(NC(=O)C(C)C)cc1C1CCN(CCCNC(=O)[C@H](C)c2ccccc2)CC1` [Example 164, 2-methyl-N-{4-methyl-3-[1-(3-{[(2R)-2-phenylpropanoyl]amino}propyl)-4-piperidinyl]phenyl} propanamide], `Cc1ccc(NC(=O)C(C)C)cc1C1CCN(CCCNC(=O)[C@@H](C)c2ccccc2)CC1` [Example 161, 2-methyl-N-{4-methyl-3-[1-(3-{[(2S)-2-phenylpropanoyl]amino}propyl)-4-piperidinyl]phenyl} propanamide] is 1.7-fold higher in Ki: 14.6 nM for the first, 24.4 nM for the second. The first binds more tightly here.

Compared with `CCC(=O)Nc1cccc(C2CCN(CCCNC(=O)C3(c4ccc(F)cc4)CCCC3)CC2)c1` [Example 60], `CCCC(=O)Nc1cccc(C2CCN(CCCNC(=O)C3(c4ccc(F)cc4)CCCC3)CC2)c1` [Example 101, N-(3-{4-[3-(BUTYRYLAMINO)PHENYL]-1-PIPERIDINYL}PROPYL)-1-(4-FLUOROPHENYL) CYCLOPENTANECARBOXAMIDE] is 3.7-fold lower in Ki: 41.3 nM for the first, 11.2 nM for the second.

Compared with `CC(C)C(=O)Nc1ccc(F)c(C2CCN(CCCNC(=O)C3(c4ccc(F)cc4)CCCCC3)CC2)c1` [Example 131], `Cc1ccc(NC(=O)C(C)C)cc1C1CCN(CCCNC(=O)C2(c3ccc(F)cc3)CCCCC2)CC1` [Example 92] is 1.5-fold lower in Ki: 4 nM for the first, 2.6 nM for the second. The second binds more tightly here.

First: Cc1ccc(NC(=O)C(C)C)cc1C1CCN(CCCNC(=O)[C@@H](C)c2ccc(Cl)cc2)CC1 [Example 166, (2S)-2-(4-chlorophenyl)-N-(3-{4-[5-(isobutyrylamino)-2-methylphenyl]-1-piperidinyl}propyl) propanamide]
Second: Cc1ccc(NC(=O)C(C)C)cc1C1CCN(CCCNC(=O)[C@H](C)c2ccc(F)cc2)CC1 [Example 169, (2R)-2-(4-fluorophenyl)-N-(3-{4-[5-(isobutyrylamino)-2-methylphenyl]-1-piperidinyl}propyl) propanamide]
The Ki of the first is 6.3-fold lower: 5.7 nM for the first, 35.9 nM for the second.

Compared with `COc1ccc(NC(=O)C(C)C)cc1C1CCN(CCCNC(=O)C(c2ccccc2)c2ccccc2)CC1` [Example 20], `CC(C)C(=O)Nc1cc(C2CCN(CCCNC(=O)C(c3ccccc3)c3ccccc3)CC2)ccc1F` [Example 56] is 20-fold lower in Ki: 90.5 nM for the first, 4.5 nM for the second. The second binds more tightly here.

`CC(=O)Nc1cccc(C2CCN(CCCNC(=O)C(C)c3ccc(Cl)cc3)CC2)c1` (centres unmarked) [Example 95, N-(3-{4-[3-(ACETYLAMINO)PHENYL]-1-PIPERIDINYL}PROPYL)-2-(4-CHLOROPHENYL) PROPANAMIDE] and `CC(C(=O)NCCCN1CCC(c2cccc(NC(=O)C3CC3)c2)CC1)c1ccc(Cl)cc1` (centres unmarked) [Example 116, N-{3-[1-(3-{[2-(4-CHLOROPHENYL)PROPANOYL]AMINO}PROPYL)-4-PIPERIDINYL] PHENYL}CYCLOPROPANECARBOXAMIDE] are within 1.5-fold of each other in Ki: 23.5 nM for the first, 18.9 nM for the second.

Going from `CC(C)(C)CC(=O)Nc1cccc(C2CCN(CCCNC(=O)C(c3ccccc3)c3ccccc3)CC2)c1` [Example 19] to `CCCC(=O)Nc1cccc(C2CCN(CCCNC(=O)C(c3ccccc3)c3ccccc3)CC2)c1` [Example 5], the Ki falls from 23.4 nM to 3.1 nM (7.5-fold). The second binds more tightly here.

`CCCC(=O)Nc1cccc(C2CCN(CCCNC(=O)C(C)(C)c3ccc(Cl)cc3)CC2)c1` [Example 80] and `CC(=O)Nc1cccc(C2CCN(CCCNC(=O)C(C)(C)c3ccc(Cl)cc3)CC2)c1` [Example 79, N-(3-{4-[3-(ACETYLAMINO)PHENYL]-1-PIPERIDINYL}PROPYL)-2-(4-CHLORO PHENYL)-2-METHYLPROPANAMIDE] are within 1.5-fold of each other in Ki: 7.7 nM for the first, 5.9 nM for the second.

Going from `Cc1ccc(NC(=O)C(C)C)cc1C1CCN(CCCNC(=O)C(C)(c2ccccc2)c2ccccc2)CC1` [Example 96] to `CCCCCC(C(=O)NCCCN1CCC(c2cccc(NC(=O)C(C)C)c2)CC1)(c1ccccc1)c1ccccc1` [Example 11], the Ki rises from 2.6 nM to 8.4 nM (3.2-fold).

First: CC(C)C(=O)Nc1cccc(C2CCN(CCCNC(=O)C(c3ccccc3)(c3ccccc3)c3ccccc3)CC2)n1 [Example 82]
Second: CC(C)C(=O)Nc1cccc(C2CCN(CCCNC(=O)C(c3ccccc3)(c3ccccc3)c3ccccc3)CC2)c1 [Example 59]
The Ki of the first is 2-fold higher: 8.6 nM for the first, 4.3 nM for the second.

`Cc1ccc(NC(=O)C(C)C)cc1C1CCN(CCCNC(=O)C2(c3ccc(Cl)cc3)CCCC2)CC1` [Example 81] and `Cc1ccc(NC(=O)C(C)C)cc1C1CCN(CCCNC(=O)C2(c3ccc(Cl)cc3)CCC2)CC1` [Example 86] are the same in Ki: 3.2 nM for the first, 3.2 nM for the second.

`CC(C)C(=O)Nc1cccc(C2CCN(CCCNC(=O)C3(c4ccc(Cl)cc4Cl)CC3)CC2)c1` [Example 41, 1-(2,4-DICHLOROPHENYL-N-(3-{4-[3-(ISOBUTYRYLAMINO)PHENYL]-1-PIPERIDINYL} PROPYL)CYCLOPROPANECARBOXAMIDE] and `CC(C)C(=O)Nc1cccc(C2CCN(CCCNC(=O)C3(c4ccc(F)cc4Cl)CCCC3)CC2)c1` [Example 38] are within 1.5-fold of each other in Ki: 39.9 nM for the first, 28.4 nM for the second.

Going from `Cc1ccc(C(C(=O)NCCCN2CCC(c3cccc(NC(=O)C(C)C)c3)CC2)c2ccc(C)cc2)cc1` [Example 34, N-{3-[1-(3-{[BIS(4-METHYLPHENYL)ACETYL]AMINO}PROPYL)-4-PIPERIDINYL] PHENYL}-2-METHYLPROPANAMIDE] to `Cc1ccc(NC(=O)C(C)C)cc1C1CCN(CCCNC(=O)C(c2ccc(Cl)cc2)c2ccc(Cl)cc2)CC1` [Example 52], the Ki rises from 2.3 nM to 4.1 nM (1.8-fold).

Going from `CCC(=O)Nc1cccc(C2CCN(CCCNC(=O)C(c3ccc(F)cc3)c3ccc(F)cc3)CC2)c1` [Example 21, N-{3-[1-(3-{[2,2-BIS(4-FLUOROPHENYL)ACETYL]AMINO}PROPYL)-4-PIPERIDINYL] PHENYL}PROPANAMIDE] to `CN(C)C(=O)Nc1cccc(C2CCN(CCCNC(=O)C(c3ccc(F)cc3)c3ccc(F)cc3)CC2)c1` [Example 139], the Ki rises from 0.7 nM to 33.4 nM (48-fold). The first binds more tightly here.

Going from `Cc1ccc(NC(=O)C(C)C)cc1C1CCN(CCCNC(=O)C2(c3ccc(Cl)cc3)CC2)CC1` [Example 89] to `Cc1ccc(NC(=O)C(C)C)cc1C1CCN(CCCNC(=O)C2(c3ccc(F)cc3)CCCC2)CC1` [Example 93], the Ki falls from 10.8 nM to 4.9 nM (2.2-fold).

`CCCC(=O)Nc1cccc(C2CCN(CCCNC(=O)C(c3ccc(Cl)cc3)c3ccc(Cl)cc3)CC2)c1` [Example 53, N-{3-[1-(3-{[2,2-BIS(4-CHLOROPHENYL)ACETYL]AMINO}PROPYL)-4-PIPERIDINYL] PHENYL}BUTANAMIDE] and `O=C(Nc1cccc(C2CCN(CCCNC(=O)C(c3ccc(Cl)cc3)c3ccc(Cl)cc3)CC2)c1)C1CC1` [Example 113, N-{3-[1-(3-{[2,2-BIS(4-CHLOROPHENYL)ACETYL]AMINO}PROPYL)-4-PIPERIDINYL] PHENYL}CYCLOPROPANECARBOXAMIDE] are within 1.5-fold of each other in Ki: 1.1 nM for the first, 0.8 nM for the second.

Compared with `CCCC(=O)Nc1cc(C2CCN(CCCNC(=O)C(c3ccc(F)cc3)c3ccc(F)cc3)CC2)ccc1F` [Example 104], `CC(C)C(=O)Nc1cc(C2CCN(CCCNC(=O)C(c3ccc(F)cc3)c3ccc(F)cc3)CC2)ccc1F` [Example 48, N-{5-[1-(3-{[BIS(4-FLUOROPHENYL)ACETYL]AMINO}PROPYL)-4-PIPERIDINYL]-2-FLUORO PHENYL}2-METHYLPROPANAMIDE] is 3.1-fold higher in Ki: 0.9 nM for the first, 2.8 nM for the second. The first binds more tightly here.

`O=C(Nc1cccc(C2CCN(CCCNC(=O)C(c3ccc(F)cc3)c3ccc(F)cc3)CC2)c1)OCc1ccccc1` [Example 141, Benzyl 3-[1-(3-{[bis(4-fluorophenyl)acetyl]amino}propyl)-4-piperidinyl]phenylcarbamate] and `COc1ccc(NC(=O)C(C)C)cc1C1CCN(CCCNC(=O)C(c2ccc(F)cc2)c2ccc(F)cc2)CC1` [Example 23] are within 1.5-fold of each other in Ki: 8.8 nM for the first, 13.1 nM for the second.

Compared with `CC(C)C(=O)Nc1ccc(F)c(C2CCN(CCCNC(=O)C3(c4ccc(Cl)cc4)CCCC3)CC2)c1` [Example 128], `CC(C)C(=O)Nc1cc(C2CCN(CCCNC(=O)C3(c4ccc(Cl)cc4)CC3)CC2)ccc1F` [Example 47] is 8.8-fold higher in Ki: 2.9 nM for the first, 25.6 nM for the second.

First: CC(C)C(=O)Nc1ccc(F)c(C2CCN(CCCNC(=O)C(c3ccc(Cl)cc3)c3ccc(Cl)cc3)CC2)c1 [Example 54]
Second: CC(C)C(=O)Nc1cc(C2CCN(CCCNC(=O)C(c3ccc(F)cc3)c3ccc(F)cc3)CC2)c(F)cc1F [Example 165, N-{5-[1-(3-{[bis(4-fluorophenyl)acetyl]amino}propyl)-4-piperidinyl]-2,4-difluorophenyl}-2-methylpropanamide]
The Ki of the first is 2-fold higher: 2.2 nM for the first, 1.1 nM for the second. The second binds more tightly here.

Going from `CCC(=O)Nc1cccc(C2CCN(CCCNC(=O)C3(c4ccc(Cl)cc4)CCCC3)CC2)c1` [Example 62, 1-(4-CHLOROPHENYL)-N-(3-{4-[3-PROPIONYLAMINO)PHENYL]-1-PIPERIDINYL} PROPYL)CYCLOPENTANECARBOXAMIDE] to `CCCC(=O)Nc1cccc(C2CCN(CCCNC(=O)C3(c4ccc(Cl)cc4)CCCC3)CC2)c1` [Example 102, N-(3-{4-[3-(BUTYRYLAMINO)PHENYL]-1-PIPERIDINYL}PROPYL)-1-(4-CHLOROPHENYL) CYCLOPENTANECARBOXAMIDE], the Ki falls from 31.7 nM to 7.9 nM (4-fold). The second binds more tightly here.

Going from `CC(C)OC(=O)Nc1cccc(C2CCN(CCCNC(=O)C3(c4ccc(F)cc4Cl)CCCCC3)CC2)c1` [Example 147, ISOPROPYL 3-{1-[3-({[1-(2-CHLORO-4-FLUOROPHENYL)CYCLOHEXYL]CARBONYL} AMINO)PROPYL]-4-PIPERIDINYL}PHENYLCARBAMATE] to `CCCC(=O)Nc1cccc(C2CCN(CCCNC(=O)C3(c4ccc(F)cc4)CCCCC3)CC2)c1` [Example 87, N-(3-{4-[3-(BUTYRYLAMINO)PHENYL]-1-PIPERIDINYL}PROPYL)-1-(4-FLUOROPHENYL) CYCLOHEXANECARBOXAMIDE], the Ki falls from 42 nM to 6.4 nM (6.6-fold). The second binds more tightly here.

First: CC(C)C(=O)Nc1c(F)cc(F)c(C2CCN(CCCNC(=O)C(c3ccc(F)cc3)c3ccc(F)cc3)CC2)c1F [Example 173, N-{3-[1-(3-{[bis(4-fluorophenyl)acetyl]amino}propyl)-4-piperidinyl]-2,4,6-trifluorophenyl}-2-methylpropanamide]
Second: CC(C)C(=O)Nc1cccc(C2CCN(CCCNC(=O)C(Br)c3ccccc3)CC2)c1 (centres unmarked) [Example 9, N-{3-[1-(3-{[BROMO(PHENYL)ACETYL]AMINO}PROPYL)-4-PIPERIDINYL] PHENYL}-2-METHYLPROPANAMIDE]
The Ki of the first is 29-fold lower: 2.5 nM for the first, 71.6 nM for the second. The first binds more tightly here.

In the case of `CCC(C(=O)NCCCN1CCC(c2cccc(NC(=O)C3CC3)c2)CC1)(c1ccccc1)c1ccccc1` [Example 122, N-[3-(1-{3-[(2,2-DIPHENYLBUTANOYL)AMINO]PROPYL}-4-PIPERIDINYL)PHENYL] CYCLOPROPANECARBOXAMIDE], the Ki is reported as 4.8 nM.
